# Patent US8408292B2, “Method for pre-treatment of subterranean sites adjacent to water injection wells” (E.I. du Pont de Nemours and Company, priority 2010, dated 2013)
# Legend:
# [1] = Example 4: titration of sand/amine/brine mixture with 10% nitric acid, amine in solution by GC; conditions: core sand in brine #2, titrated with 10 wt % nitric acid
# Procedure: (§1) Concentration of amines, in media and water, were analyzed by gas chromatography (GC). An Agilent Model 5890 (Agilent, Wilmington, Del.), GC equipped with a […] and a split/splitless injector, a DB-FFAP column (30 meter length×0.32 millimeter (mm) […]×0.25 micrometer particle size). […] The system was calibrated using a sample of N,N-Dimethyl-1-Dodecaneamine (Aldrich). Helium was used as the carrier gas. A temperature gradient of 50 degrees Celsius (° C.) to 250° C. at 30° C. increase per minute (min) was used.
# The procedure outlined in Example 2 was used to produce the sand/amine mixture except that 519 mg of the amine, 10 gr of Pentane. and 60.062 gr of sand from the Oa and Ob layers were used. 29.065 gr of this sand/amine mixture was added to 100 ml of brine #2 (Table 3) to create the sand/amine/brine mixture. […] The concentration of the amine in the water should have been about […] if all the amine was dissolved in brine #2. […] 0.1 ml of 10 weight percent (wt %) nitric acid in water was added to this solution, and the pH and the amine concentration were measured again.
# [2] = Example 5: titration of sand/amine/brine mixture with 10% acetic acid, amine in solution by GC; conditions: core sand in brine #2, titrated with 10 wt % acetic acid
# Procedure: as §1
# The same procedure outlined in Example 4 was repeated here to produce the sand/amine mixture. 30.85 grams (gr) of the sand/amine mixture was added to 100 ml of brine #2 (Table 3) to create the sand/amine/brine mixture.
# [3] = Example 2: titration of amine coated core sand in brine #2 with 1N HCl, amine in solution by GC; type: physicochemical; conditions: core sand in brine #2, titrated with 1N HCl
# Procedure: Helium was used as the carrier gas.
# 38 milligrams (mg) of N N-Dimethyl-1-Dodecanamine (hereafter referred to as “the amine”) was added to 10.210 gr of Pentane. This solution was added to 10.1845 gr of specific sand layers (Oa and Ob) obtained from the Schrader Bluff formation of the Milne Point Unit of the Alaskan North slope. The oil content of the sand was first removed using a mixture of methanol and toluene (50/50, volume/volume) as solvent washes. The solvent mixture was subsequently evaporated off the core sand to produce clean, dry, flowable core sand. This sand was mixed with the amine and pentane solution to produce a slurry. This slurry was thoroughly mixed and the pentane was evaporated off leaving the amine on the sand (hereafter referred to as sand/amine mixture). 100 ml of brine #2 (Table 3) was added to the sand/amine mixture to create the sand/amine/brine mixture. […] The fact that the amine was not detected underlined its strong binding to the sand particles. […] The data underlines the remarkable efficiency of an acid at ionizing and removing the amine from the sand.
compound,measurement,setting,value
"CCCCCCCCCCCCN(C)C [N-N-dimethyl-1-dodeanamine, N N-Dimethyl-1-Dodecanamine]",pH below which complete ionization and solubilization in the water of the amine was observed,[1],~6.7 pH
same,pH below which complete ionization and solubilization in the water of the amine was observed,[2],~6.7 pH
same,pH below which complete ionization and solubilization of the amine in the water was observed,[3],~6.0 pH
